Values quoted from earlier work, collected in patent publication US20160213008A1, “ULTRASONIC MICRO-DROPLET RELEASE OF MATRIX BOUND FOOD DERIVED ANTIMICROBIALS” (priority 2015, published 2016).

Settings: Cavallito and colleagues 1944

## C=CCSSC=CC[S+]([O-])CC=C (mixture of isomers) [Ajoene]
  antibacterial and antifungal / antimicrobial activity: shows antimicrobial properties

## C=CCS[S+]([O-])CC=C (centres unmarked) [allicin]
  antibacterial and antifungal / antimicrobial activity: attributable
